The source of these data is ChEMBL document CHEMBL5331093, “Identification of "dual-site"-binding diarylpyrimidines targeting both NNIBP and the NNRTI adjacent site of the HIV-1 reverse transcriptase” (Eur J Med Chem, 2023).

What is called EC50 is the concentration that produces a half-maximal response. For orientation: IC50 means the concentration that gives 50% inhibition. The term CC50 denotes the concentration giving 50% cytotoxicity. One may read the solubility as how much of the substance goes into solution per volume. Lower therefore signals a poorly soluble substance.

Values after ≈ are worked out from the molar mass of the structure shown.

Series [1] concerns Human immunodeficiency virus 1. The experiment in a line: Anti-HIV activity against NNRTI-resistant HIV-1 harboring RT Y181C mutant infected in human MT4 cells assessed as inhibition of virus-induced cytopathic effect incubated for 5 days by MTT assay. The format is functional, organism-based. The following applies: Human immunodeficiency virus 1, MT4, 120 h.
The subject of series [2] is Human immunodeficiency virus 1. The experiment in a line: Anti-HIV activity against NNRTI-resistant HIV-1 harboring RT K103N mutant infected in human MT4 cells assessed as inhibition of virus-induced cytopathic effect incubated for 5 days by MTT assay. Type of series: functional, organism-based. To be noted: Human immunodeficiency virus 1, MT4, 120 h. A general note: Cytopathic effects are the visible damage that an infection or toxin causes in cultured cells.

For series [3], the system named is Human immunodeficiency virus 1. As to the kind of experiment: Anti-HIV activity against wild type HIV-1 IIIB infected in human MT4 cells assessed as inhibition of virus-induced cytopathic effect incubated for 5 days by MTT assay. To be noted: Human immunodeficiency virus 1, IIIB, MT4, 120 h. Type of series: functional, organism-based.
The test system of series [4] is Human immunodeficiency virus 1. As to the kind of experiment: Anti-HIV activity against NNRTI-resistant HIV-1 harboring RT L100I mutant infected in human MT4 cells assessed as inhibition of virus-induced cytopathic effect incubated for 5 days by MTT assay. To be noted: Human immunodeficiency virus 1, MT4, 120 h. Type of series: functional, organism-based.
For series [5], the system named is Human immunodeficiency virus 1. The experiment in a line: Anti-HIV activity against NNRTI-resistant HIV-1 RES056 harboring RT K103N/Y181C double mutant infected in human MT4 cells assessed as inhibition of virus-induced cytopathic effect incubated for 5 days by MTT assay. Type of series: functional, organism-based. The following applies: Human immunodeficiency virus 1, RES056, MT4, 120 h.

Series [6] is described as follows: Selectivity index, ratio of CC50 cytotoxicity against human MT4 cells to EC50 for anti-HIV activity against wild type HIV-1 IIIB infected in human MT4 cells. The format is toxicity, cell-based. To be noted: read-out: Ratio CC50/EC50.
Series [7] has as its system Human immunodeficiency virus 1. The experiment in a line: Anti-HIV activity against NNRTI-resistant HIV-1 harboring RT Y188L mutant infected in human MT4 cells assessed as inhibition of virus-induced cytopathic effect incubated for 5 days by MTT assay. The format is functional, organism-based. To be noted: Human immunodeficiency virus 1, MT4, 120 h.
Series [8] is described as follows: Resistance factor, ratio of EC50 for anti-HIV activity against NNRTI-resistant HIV-1 RES056 harboring RT K103N/Y181C double mutant infected in human MT4 cells to EC50 for anti-HIV activity against wild type HIV-1 IIIB infected in human MT4 cells. The format is functional.
Series [9] can be described thus: Selectivity index, ratio of CC50 cytotoxicity against human MT4 cells to EC50 for anti-HIV activity against NNRTI-resistant HIV-1 RES056 harboring RT K103N/Y181C double mutant infected in human MT4 cells. Type of series: toxicity, cell-based. The following applies: read-out: Ratio CC50/EC50.
Series [10] concerns the target Human immunodeficiency virus type 1 reverse transcriptase (Human immunodeficiency virus 1, UniProt Q72547). As to the kind of experiment: Inhibition of wild type recombinant HIV-1 reverse transcriptase assessed as reduction of biotin-dUTP incorporation into […] using ABTS as substrate incubated for 1 hrs by ELISA analysis. In general terms: An ELISA detects its analyte on a solid surface through an enzyme-linked reagent.

Series [11] deals with Human immunodeficiency virus 1. The experiment in a line: Anti-HIV activity against NNRTI-resistant HIV-1 harboring RT F227L/V106A double mutant infected in human MT4 cells assessed as inhibition of virus-induced cytopathic effect incubated for 5 days by MTT assay. Type of series: functional, organism-based. To be noted: Human immunodeficiency virus 1, MT4, 120 h.
Series [12] relates to Human immunodeficiency virus 1. As to the kind of experiment: Anti-HIV activity against NNRTI-resistant HIV-1 harboring RT E138K mutant infected in human MT4 cells assessed as inhibition of virus-induced cytopathic effect incubated for 5 days by MTT assay. The format is functional, organism-based. The following applies: Human immunodeficiency virus 1, MT4, 120 h.
Series [13] can be described thus: Cytotoxicity against human MT4 cells assessed as reduction in cell viability incubated for 5 days by MTT assay. Type of series: toxicity, cell-based. The following applies: time 5 day.
Series [14] in a line: Aqueous solubility of the compound at pH 7.4. The format is physicochemical. To be noted: aqueous medium.
Series [15] is described as follows: Aqueous solubility of the compound at pH 7.0. Type of series: physicochemical. To be noted: aqueous medium.
Series [16] in a line: Aqueous solubility of the compound at pH 2.0. The format is physicochemical. To be noted: aqueous medium.

`Cc1cc(C#N)cc(C)c1Oc1nc(Nc2ccc(C#N)cc2)ncc1SCC(=O)NCCCN1CCOCC1`: the EC50 in series [1] came to 30.9 nM; in series [2], 2.78 nM; in series [3], 3.41 nM; in [4], 25.8 nM; in [5], 386 nM; in series [7], 94.6 nM. Moreover, the EC50 in [11] came to 231 nM; in series [12] it was 38.1 nM. Moreover, the selectivity ratio in series [6] was 6930; in series [9] it was 61. For the same compound, the “Ratio EC50” value in series [8] is on record as 113. Further, the IC50 in [10] came to 113 nM.

Take `C#CCNC(=O)/C=C/c1cnc(Nc2ccc(C#N)cc2)nc1Oc1c(C)cc(C#N)cc1C`: the selectivity ratio came out at 27100 in series [6] and 109 in [9]. Further, the “Ratio EC50” value in [8] is 248.

With `Cc1cc(C#N)cc(C)c1Oc1nc(Nc2ccc(C#N)cc2)ncc1C#CC(=O)NCCCN1CCOCC1`, the concentration giving a half-maximal response (EC50) in series [3] came out at 12.9 nM; in [5], 3440 nM. The selectivity ratio in series [6] is 4600; in [9] it was 17. Besides, the “Ratio EC50” value in [8] is 268. In addition, the CC50 at 120 h in [13] was found to be 59200 nM.

As to `Cc1cc(C#N)cc(C)c1Oc1nc(Nc2ccc(C#N)cc2)ncc1C#CC(=O)NCCOCCO`, the EC50 in [3] worked out at 10.5 nM; in [5], 818 nM. Moreover, the selectivity ratio in series [6] was determined as 890; in series [9] it was 11. Besides, the “Ratio EC50” value in [8] is on record as 78. Also, in series [13], the CC50 at 120 h was 9380 nM.

As to `C#CCNC(=O)C#Cc1cnc(Nc2ccc(C#N)cc2)nc1Oc1c(C)cc(C#N)cc1C`, the EC50 in series [1] was 87.2 nM; in [2] it was 15.2 nM; in series [3] it was 6.15 nM; in series [4], 125 nM; in series [5] it was 814 nM; in series [7], 155 nM. The half-maximal effective concentration (EC50) in series [11] worked out at 452 nM; in [12], 27.2 nM. The selectivity ratio in series [6] was determined as 1140; in [9] it was 9. Further, the “Ratio EC50” value in series [8] worked out at 132. In addition, the CC50 at 120 h in [13] worked out at 7020 nM.

For `COC(=O)C1CCC(NC(=O)C#Cc2cnc(Nc3ccc(C#N)cc3)nc2Oc2c(C)cc(C#N)cc2C)CC1` (centres undefined), the EC50 in series [1] amounted to 101 nM; in [2], 20.4 nM; in series [3] it was 6.38 nM; in series [4], 131 nM; in [5], 664 nM; in [7], 171 nM. Besides, the EC50 is 3210 nM in series [11] and 26.9 nM in series [12]. The selectivity ratio in series [6] stood at 1800; in series [9] it was 17. In addition, in series [8], the “Ratio EC50” value is on record as 104. For the same compound, the IC50 in series [10] was 185 nM. Moreover, the CC50 at 120 h in [13] was 11500 nM.

As to `COCCNC(=O)C#Cc1cnc(Nc2ccc(C#N)cc2)nc1Oc1c(C)cc(C#N)cc1C`, the EC50 came to 9.6 nM in series [1]; 2.36 nM in series [2]; 2.04 nM in [3]; 6.06 nM in series [4]; 35.7 nM in [5]; 14.3 nM in series [7]. Moreover, the figures for the EC50 in series [11] and in [12] were 61.1 nM and 6.27 nM, respectively. Also, the figures for the solubility in series [14], in [15] and in series [16] were 7.84 µg/mL (≈ 16.8 µM), 8.27 µg/mL (≈ 17.7 µM) and 22.8 µg/mL (≈ 48.9 µM), respectively. In addition, the values for the selectivity ratio in series [6] and in [9] were 6650 and 379, respectively. Also, the “Ratio EC50” value in series [8] was 18. The IC50 in series [10] worked out at 19 nM. In addition, in [13], the half-maximal cytotoxic concentration (CC50) at 120 h was 13600 nM.

On to `Cc1cc(C#N)cc(C)c1Oc1nc(Nc2ccc(C#N)cc2)ncc1C#CC(=O)NCCN1CCOCC1`, for which the EC50 in series [3] turned out to be 120 nM. Moreover, the values for the selectivity ratio in series [6] and in series [9] were above 2000 and above 2, respectively. In [8], the “Ratio EC50” value was determined as 957. The CC50 at 120 h in series [13] was above 240000 nM.

Regarding `Cc1cc(C#N)cc(C)c1Oc1nc(Nc2ccc(C#N)cc2)ncc1C#CC(=O)NCCN1CCN(S(C)(=O)=O)CC1`, the concentration for a half-maximal effect (EC50) is 11.1 nM in [3] and 774 nM in [5]. In addition, the selectivity ratio in series [6] turned out to be 440. Moreover, the “Ratio EC50” value in series [8] is given as 70. The CC50 at 120 h in series [13] turned out to be 4890 nM.

For `CCOC(=O)C#Cc1cnc(Nc2ccc(C#N)cc2)nc1Oc1c(C)cc(C#N)cc1C`, the EC50 in series [1] came out at 13.6 nM; in series [2] it was 5.2 nM; in [3], 4.35 nM; in series [4], 10.9 nM; in [5], 133 nM; in series [7] it was 10.3 nM. Moreover, the EC50 in series [11] is 15.9 nM; in series [12] it was 9.72 nM. Moreover, the figures for the selectivity ratio in [6] and in [9] were 7940 and 260, respectively. Moreover, the “Ratio EC50” value in series [8] worked out at 31. Also, the IC50 in series [10] was 102 nM. Moreover, the CC50 at 120 h in [13] came out at 34500 nM.

For the compound `Cc1cc(C#N)cc(C)c1Oc1nc(Nc2ccc(C#N)cc2)ncc1C#CC(=O)NCCN1CCN(C(=O)OC(C)(C)C)CC1`, the half-maximal effective concentration (EC50) in series [3] was found to be 18.3 nM; in [5], 4010 nM. Also, the selectivity ratio in series [6] came out at 1220; in series [9] it was 6. For the same compound, the “Ratio EC50” value in series [8] worked out at 219. Further, the CC50 at 120 h in [13] was found to be 22400 nM.

As to `Cc1cc(C#N)cc(C)c1Oc1nc(Nc2ccc(C#N)cc2)ncc1C#CC(=O)NC1CC1`, the EC50 in series [1] turned out to be 36.9 nM; in series [2] it was 13.3 nM; in [3], 4.78 nM; in [4], 111 nM; in series [5] it was 313 nM; in series [7], 236 nM. Besides, the EC50 in series [11] is 376 nM; in series [12] it was 14.9 nM. The selectivity ratio in [6] turned out to be 1110; in [9] it was 17. In [8], the “Ratio EC50” value is on record as 66. The concentration for half-maximal inhibition (IC50) in series [10] turned out to be 52 nM. Besides, in series [13], the CC50 at 120 h worked out at 5300 nM.

Take `O=C1Nc2ccc(Cl)cc2[C@@](C#CC2CC2)(C(F)(F)F)O1` [EFAVIRENZ]: the EC50 came out at 4.78 nM in series [1]; 2.36 nM in [3]; 33.4 nM in [4]; 136 nM in series [5]; 199 nM in series [7]; 154 nM in series [11]. Besides, in [12], the EC50 is 3.52 nM. Besides, the CC50 at 120 h in [13] is above 6340 nM.

On to `Cc1cc(C#N)cc(C)c1Oc1nc(Nc2ccc(C#N)cc2)nc(N)c1Br` [ETRAVIRINE], for which the EC50 in [2] worked out at 2.78 nM; in series [4], 5.72 nM; in series [5] it was 23.4 nM; in [11] it was 16.8 nM; in series [12], 5.32 nM. The CC50 at 120 h in series [13] is above 4590 nM.
